# What was measured:
# [1] = test system: PANC-1 pancreatic cancer cell line; assay: Crystal Violet viability assay, PANC-1; type: cell-based, human; details: for ABSORBANCE: 0.1 μg/mL cisplatin; for CVE 24 h / CVE 48 h / CVE 72 h: Run 1 average
# Excerpt: (§1) Three different viability assays were chosen to complement each other and yielded results dependent on concentration and cell line: the Methyl Tetrazolium dye assay, the Sulforhodamine B fluorescent dye assay, and the Crystal Violet dye assay.
# (§2) The Sulforhodamine B and Crystal Violet assays provide information about protein and were used to complement the Methyl-Tetrazolium dye assay. […] It is used for the quantification of cellular proteins of cultured cells. The assay using Crystal Violet, a dye that binds electrostatically to proteins and stains DNA, provides a reliable, simple assay for measuring viability of cells.
# The Methyl Tetrazolium, Sulforhodamine B, and Crystal Violet assays were used to assess cell viabilities. The incubation times were 24 hours, 48 hours, and 72 hours. The Nerium oleander extract Anvirzel™ (a hot water extract of oleander obtained from Salud Integral, Honduras) was tested in concentrations ranging from 0.01 ng/mL to 10 ng/mL.
# (§3) Cells were detached by trypsinization (Trypsin-0.25% EDTA, Invitrogen, 25200-072) during the logarithmic phase of culture growth and plated in 96-well plates (18.000 cells/well) (Corning, Costar 359) in a final volume of 200 μl of medium per well. […] The absorbance was measured after 24 hours, 48 hours, and 72 hours of incubation.
# For the Crystal Violet assay, the medium was removed from the 96-well plates, the plates rinsed with PBS (Sigma, P3813) and then the cells were […] by the addition of 10% formalin (MERCK, 1.04003.2500) for 20 minutes at RT. Formalin was removed and 0.25% aqueous crystal violet (Sigma, HT901), dissolved in water, was added for 10 minutes at RT. Unbound Crystal Violet was rinsed by washing with water and finally 33% acetic acid was added to dissolve the dye.
# (§4) The optical density of each plate was measured on a μQuant spectrophotometer and the data were analyzed with Gen5 software (μQuant Biomolecular Spectrophotometer MQX200 and Gen5™ Microplate Data Collection & Analysis software, BioTek® Instruments. Inc, April 2008). Absorbance was measured at 570 nm for all assays and a second wavelength was measured in order to subtract noise. For the Methyl-Tetrazolium assay this second wavelength was 630 nm and for the Sulforhodamine B and Crystal Violet assays it was 690 nm.
# [2] = test system: PANC-1 pancreatic cancer cell line; assay: Sulforhodamine B viability assay, PANC-1; type: cell-based, human; design: key to Average SRB: absorbance (optical density) at 570 nm, second wavelength subtracted; details: for ABSORBANCE: 0.1 μg/mL cisplatin; for SRB 24 h / SRB 48 h / SRB 72 h: Run 1 average
# Excerpt: as §1
# as §2, with “of cells. […]” for “of cells.”
# as §3
# For the Sulforhodamine B assay, 96-well plates were fixed by 10% trichloroacetic acid (Fluka, 91228) and were incubated at 4° C. for 1 hour. Afterwards, plates were rinsed with water and cells were stained with 0.4% Sulforhodamine B (Sigma, 341738), dissolved in 1% acetic acid (Carlo Ebra, 401422) for 15 minutes at room temperature (RT). The unbound stain was washed twice with 1% acetic acid. Finally, 10 mM Tris Buffer pH 10.5 (Sigma, T6791) was added to dissolve the dye.
# as §4
# [3] = PANC-1, Run 2, 24 h, 0.1 μg/ml CDDP
# [4] = PANC-1, Run 2, 24 h, 1 μg/ml CDDP
# [5] = PANC-1, Run 2, 24 h, 10 μg/ml CDDP
# [6] = PANC-1, Run 2, 24 h, 100 μg/ml CDDP
# [7] = PANC-1, Run 2, 48 h, 0.1 μg/ml CDDP
# [8] = PANC-1, Run 2, 48 h, 1 μg/ml CDDP
# [9] = PANC-1, Run 2, 48 h, 10 μg/ml CDDP
# [10] = PANC-1, Run 2, 48 h, 100 μg/ml CDDP
# [11] = PANC-1, Run 2, 72 h, 0.1 μg/ml CDDP
# [12] = PANC-1, Run 2, 72 h, 1 μg/ml CDDP
# [13] = PANC-1, Run 2, 72 h, 10 μg/ml CDDP
# [14] = PANC-1, Run 2, 72 h, 100 μg/ml CDDP
# [15] = PANC-1, Run 3, 24 h, 0.1 μg/ml CDDP
# [16] = PANC-1, Run 3, 24 h, 1 μg/ml CDDP
# [17] = PANC-1, Run 3, 24 h, 10 μg/ml CDDP
# [18] = PANC-1, Run 3, 24 h, 100 μg/ml CDDP
# [19] = PANC-1, Run 3, 48 h, 0.1 μg/ml CDDP
# [20] = PANC-1, Run 3, 48 h, 1 μg/ml CDDP
# [21] = PANC-1, Run 3, 48 h, 10 μg/ml CDDP
# [22] = PANC-1, Run 3, 48 h, 100 μg/ml CDDP
# [23] = PANC-1, Run 3, 72 h, 0.1 μg/ml CDDP
# [24] = PANC-1, Run 3, 72 h, 1 μg/ml CDDP
# [25] = PANC-1, Run 3, 72 h, 10 μg/ml CDDP
# [26] = PANC-1, Run 3, 72 h, 100 μg/ml CDDP
smiles,measurement,setting,value
N.N.[Cl][Pt][Cl] [cisplatin],ABSORBANCE,"[1]; PANC-1, 48 h",0.753
same,ABSORBANCE,"[1]; PANC-1, 72 h",0.872
same,Average CVE,[1]; [3],0.793
same,Average CVE,[1]; [4],0.456
same,Average CVE,[1]; [5],0.602
same,Average CVE,[1]; [6],0.345
same,Average CVE,[1]; [7],0.575
same,Average CVE,[1]; [8],0.249
same,Average CVE,[1]; [9],0.33
same,Average CVE,[1]; [10],0.323
same,Average CVE,[1]; [11],0.839
same,Average CVE,[1]; [12],0.514
same,Average CVE,[1]; [13],0.49
same,Average CVE,[1]; [14],0.385
same,Average CVE,[1]; [15],0.476
same,Average CVE,[1]; [16],0.457
same,Average CVE,[1]; [17],0.698
same,Average CVE,[1]; [18],0.428
same,Average CVE,[1]; [19],0.753
same,Average CVE,[1]; [20],0.395
same,Average CVE,[1]; [21],0.218
same,Average CVE,[1]; [22],0.18
same,Average CVE,[1]; [23],0.872
same,Average CVE,[1]; [24],0.358
same,Average CVE,[1]; [25],0.421
same,Average CVE,[1]; [26],0.253
same,CVE 24 h,[1]; 0.1 μg/ml CDDP,0.324
same,CVE 48 h,[1]; 0.1 μg/ml CDDP,0.717
same,CVE 72 h,[1]; 0.1 μg/ml CDDP,0.676
same,CVE 24 h,[1]; 1 μg/ml CDDP,0.125
same,CVE 48 h,[1]; 1 μg/ml CDDP,0.429
same,CVE 72 h,[1]; 1 μg/ml CDDP,0.262
same,CVE 24 h,[1]; 10 μg/ml CDDP,0.191
same,CVE 48 h,[1]; 10 μg/ml CDDP,0.466
same,CVE 72 h,[1]; 10 μg/ml CDDP,0.337
same,CVE 24 h,[1]; 100 μg/ml CDDP,0.153
same,CVE 48 h,[1]; 100 μg/ml CDDP,0.381
same,CVE 72 h,[1]; 100 μg/ml CDDP,0.28
same,ABSORBANCE,"[2]; PANC-1, 48 h",1.861
same,ABSORBANCE,"[2]; PANC-1, 72 h",2.536
same,Average SRB,[2]; [3],1.924
same,Average SRB,[2]; [4],2.391
same,Average SRB,[2]; [5],2.075
same,Average SRB,[2]; [6],1.821
same,Average SRB,[2]; [7],1.505
same,Average SRB,[2]; [8],1.549
same,Average SRB,[2]; [9],1.106
same,Average SRB,[2]; [10],0.752
same,Average SRB,[2]; [11],2.471
same,Average SRB,[2]; [12],2.171
same,Average SRB,[2]; [13],1.815
same,Average SRB,[2]; [14],1.374
same,Average SRB,[2]; [15],1.881
same,Average SRB,[2]; [16],2.008
same,Average SRB,[2]; [17],1.74
same,Average SRB,[2]; [18],2.087
same,Average SRB,[2]; [19],1.861
same,Average SRB,[2]; [20],1.165
same,Average SRB,[2]; [21],0.954
same,Average SRB,[2]; [22],0.858
same,Average SRB,[2]; [23],2.536
same,Average SRB,[2]; [24],2.281
same,Average SRB,[2]; [25],2.07
same,Average SRB,[2]; [26],1.584
same,SRB 24 h,[2]; 0.1 μg/ml CDDP,1.369
same,SRB 48 h,[2]; 0.1 μg/ml CDDP,2.223
same,SRB 72 h,[2]; 0.1 μg/ml CDDP,2.191
same,SRB 24 h,[2]; 1 μg/ml CDDP,1.748
same,SRB 48 h,[2]; 1 μg/ml CDDP,1.748
same,SRB 72 h,[2]; 1 μg/ml CDDP,1.47
same,SRB 24 h,[2]; 10 μg/ml CDDP,1.597
same,SRB 48 h,[2]; 10 μg/ml CDDP,1.339
same,SRB 72 h,[2]; 10 μg/ml CDDP,1.435
same,SRB 24 h,[2]; 100 μg/ml CDDP,1.993
same,SRB 48 h,[2]; 100 μg/ml CDDP,1.53
same,SRB 72 h,[2]; 100 μg/ml CDDP,1.433

# From patent US20190343908A1, “Therapeutic Combination for the Treatment of Cancer” (Nerium Biotechnology Inc., priority 2011, published 2019)
